This note sets out measurements from PubChem BioAssay (NCI).

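Five compound concentrations were applied to cells in 96-well plates for 48 hours; endpoints were derived by simple linear interpolation of the resulting dose-response curve. The concentration for full growth arrest is given as TGI.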

Some test systems named below: PC-3 prostate; OVCAR-4 ovarian; HCC-2998 colon; HCT-15 colon; A549 NSCLC; HCT-116 colon; SF-295 CNS; SK-MEL-2 melanoma; MOLT-4 leukemia.
Common to all, as to assay: inhibition of tumour cell growth, NCI panel, 48 h

On to `Oc1[nH]c2ccccc2c1N=Nc1nc(-c2ccc(Cl)c(Cl)c2)cs1`, for which the TGI in the assay with PC-3 prostate, with OVCAR-4 ovarian, with HCC-2998 colon, with HCT-15 colon, with A549 NSCLC and in the assay on HCT-116 colon was greater than 100 µM throughout. Further, the TGI in the assay on SF-295 CNS, in the assay with SK-MEL-2 melanoma and in the assay with MOLT-4 leukemia was greater than 100 µM throughout.
For the compound `O=[N+]([O-])c1ccc(N=Nc2c(O)c(S(=O)(=O)O)cc3cc(S(=O)(=O)O)ccc23)cc1`, the TGI in the assay on PC-3 prostate, in the assay on OVCAR-4 ovarian, with HCC-2998 colon, in the assay with HCT-15 colon, with A549 NSCLC and in the assay on HCT-116 colon was greater than 100 µM in each case. For the same compound, the TGI with SF-295 CNS, in the assay on SK-MEL-2 melanoma and in the assay on MOLT-4 leukemia was greater than 100 µM throughout.
As to `Cc1[nH]c2ccccc2c1C=Nc1ccc(N=Cc2c(C)[nH]c3ccccc23)cc1`, the TGI is greater than 100 µM in the assay on PC-3 prostate; greater than 100 µM in the assay on OVCAR-4 ovarian; greater than 100 µM in the assay on HCC-2998 colon; greater than 100 µM in the assay on HCT-15 colon; greater than 100 µM in the assay with A549 NSCLC; 38.2 µM in the assay on HCT-116 colon. The TGI in the assay with SF-295 CNS is greater than 100 µM; with SK-MEL-2 melanoma it was 57.2 µM; in the assay with MOLT-4 leukemia, 43.1 µM.
For `NC(=O)c1ccc2c(c1)S(=O)(=O)c1ccccc1C2=O`, the TGI in the assay on PC-3 prostate, with OVCAR-4 ovarian, in the assay on HCC-2998 colon, in the assay with HCT-15 colon, in the assay with A549 NSCLC and in the assay with HCT-116 colon was greater than 100 µM each time. In addition, the TGI with SF-295 CNS, in the assay on SK-MEL-2 melanoma and with MOLT-4 leukemia was greater than 100 µM in each case.
Take `CCCCCCCCCCCCCCCCCCNc1ccn(C2OC(COP(=O)(O)OCC3OC(n4cc(C)c(=O)[nH]c4=O)CC3N=[N+]=[N-])C(O)C2O)c(=O)n1` (centres undefined): the TGI in the assay on PC-3 prostate is 22.5 µM; in the assay with OVCAR-4 ovarian, 83.9 µM; in the assay with HCC-2998 colon, 29.9 µM; with HCT-15 colon, 36.1 µM; with A549 NSCLC it was greater than 100 µM; in the assay with HCT-116 colon, greater than 100 µM. The TGI was 32.6 µM in the assay on SF-295 CNS, 39.8 µM with SK-MEL-2 melanoma and 44.4 µM in the assay on MOLT-4 leukemia.
With `COc1ccc2c(c1)N=C1CSC(c3ccccc3Cl)N1C2` (centres undefined), the TGI is 58.5 µM with PC-3 prostate; 35.6 µM in the assay on OVCAR-4 ovarian; 18.1 µM with HCC-2998 colon; 87.8 µM in the assay with HCT-15 colon; 31.9 µM in the assay on A549 NSCLC; 18.8 µM in the assay with HCT-116 colon. For the same compound, the TGI in the assay on SF-295 CNS amounted to 42.4 µM; in the assay on SK-MEL-2 melanoma, 30.3 µM; in the assay with MOLT-4 leukemia, 15.7 µM.
In the case of `N#Cc1c(N2CCCC2)ncn(Cc2ccccc2)c1=O`, the TGI in the assay on PC-3 prostate, in the assay on OVCAR-4 ovarian, in the assay with HCC-2998 colon, in the assay with HCT-15 colon, in the assay with A549 NSCLC and in the assay on HCT-116 colon was greater than 100 µM each time. In addition, the TGI in the assay with SF-295 CNS, in the assay on SK-MEL-2 melanoma and in the assay with MOLT-4 leukemia was greater than 100 µM in each case.
As for `C(=C\c1ccccc1)/C=N/c1nc2cc3sc(/N=C/C=C/c4ccccc4)nc3cc2s1`, the TGI in the assay on PC-3 prostate, with OVCAR-4 ovarian, with HCC-2998 colon, with HCT-15 colon, with A549 NSCLC and in the assay with HCT-116 colon was greater than 100 µM throughout. In addition, the TGI in the assay with SF-295 CNS was greater than 100 µM; in the assay with SK-MEL-2 melanoma, greater than 100 µM; with MOLT-4 leukemia it was greater than 76.1 µM.
As to `COC(=O)n1c(=O)n(-c2ccccc2)c(=O)n1C(=O)OC`, the TGI with PC-3 prostate, with OVCAR-4 ovarian, in the assay with HCC-2998 colon, in the assay with HCT-15 colon, in the assay with A549 NSCLC and in the assay with HCT-116 colon was greater than 100 µM throughout. The TGI in the assay on SK-MEL-2 melanoma and in the assay with MOLT-4 leukemia was greater than 100 µM each time.
Take `COC(=O)/C=C(/C(=O)OC)c1c(C)c(C)c2c(C)cc(C)cc(C)c1-2`: the TGI with PC-3 prostate, with OVCAR-4 ovarian, in the assay with HCC-2998 colon, in the assay on HCT-15 colon, in the assay with A549 NSCLC and in the assay with HCT-116 colon was greater than 100 µM in each case. In addition, the TGI in the assay on SF-295 CNS, with SK-MEL-2 melanoma and with MOLT-4 leukemia was greater than 100 µM each time.
Regarding `COC(=O)/C=C1\CCC(C)(C(=O)NS(=O)(=O)c2ccc(C)cc2)C1(C)C` (centres undefined), the TGI in the assay with PC-3 prostate, in the assay on OVCAR-4 ovarian, in the assay with HCC-2998 colon, in the assay with HCT-15 colon, in the assay on A549 NSCLC and in the assay with HCT-116 colon was greater than 100 µM throughout. The TGI with SF-295 CNS, in the assay on SK-MEL-2 melanoma and in the assay with MOLT-4 leukemia was greater than 100 µM in each case.
For `O=C1C(Br)=CC2(C=C1Br)CCNC1=C2C(=O)c2cccnc2C1=O`, the TGI in the assay on PC-3 prostate turned out to be 39.7 µM; with OVCAR-4 ovarian, 31.2 µM; in the assay on HCC-2998 colon it was 31.9 µM; in the assay with HCT-15 colon it was 22.6 µM; in the assay with A549 NSCLC it was 30.1 µM; in the assay on HCT-116 colon, 26.4 µM. In addition, the TGI in the assay on SF-295 CNS turned out to be 21 µM; in the assay with SK-MEL-2 melanoma, 10.9 µM; in the assay with MOLT-4 leukemia, 24.9 µM.
With `CCOc1nc(-c2ccccc2)cc(-c2ccc(N3CCOCC3)cc2)c1C#N`, the TGI with PC-3 prostate, in the assay on OVCAR-4 ovarian, with HCC-2998 colon, in the assay with HCT-15 colon, with A549 NSCLC and with HCT-116 colon was greater than 100 µM throughout. Also, the TGI with SF-295 CNS, in the assay on SK-MEL-2 melanoma and with MOLT-4 leukemia was greater than 100 µM each time.
Regarding `Cc1cn(CC2=NCC(C)(C)N2)c(=O)[nH]c1=O`, the TGI in the assay on PC-3 prostate, with HCC-2998 colon, in the assay on HCT-15 colon, with A549 NSCLC, in the assay with HCT-116 colon and in the assay with SF-295 CNS was greater than 100 µM throughout. The TGI in the assay with SK-MEL-2 melanoma and in the assay with MOLT-4 leukemia was greater than 100 µM throughout.
